Reference: ChEMBL document CHEMBL5696442, “Discovery of type II inhibitors of TGFβ-activated kinase 1 (TAK1) and mitogen-activated protein kinase kinase kinase kinase 2 (MAP4K2)” (J Med Chem, 2015)

Columns and labels:
[1] = target: T1, Mitogen-activated protein kinase kinase kinase 2 (Homo sapiens) (UniProt Q9Y2U5); test: Inhibition of MAP3K2 Lys1 labeling site in human Huh-7 cells at 1 uM by KiNativ Profiling analysis relative to control; format: cell-based
T1 sequence (whole entry): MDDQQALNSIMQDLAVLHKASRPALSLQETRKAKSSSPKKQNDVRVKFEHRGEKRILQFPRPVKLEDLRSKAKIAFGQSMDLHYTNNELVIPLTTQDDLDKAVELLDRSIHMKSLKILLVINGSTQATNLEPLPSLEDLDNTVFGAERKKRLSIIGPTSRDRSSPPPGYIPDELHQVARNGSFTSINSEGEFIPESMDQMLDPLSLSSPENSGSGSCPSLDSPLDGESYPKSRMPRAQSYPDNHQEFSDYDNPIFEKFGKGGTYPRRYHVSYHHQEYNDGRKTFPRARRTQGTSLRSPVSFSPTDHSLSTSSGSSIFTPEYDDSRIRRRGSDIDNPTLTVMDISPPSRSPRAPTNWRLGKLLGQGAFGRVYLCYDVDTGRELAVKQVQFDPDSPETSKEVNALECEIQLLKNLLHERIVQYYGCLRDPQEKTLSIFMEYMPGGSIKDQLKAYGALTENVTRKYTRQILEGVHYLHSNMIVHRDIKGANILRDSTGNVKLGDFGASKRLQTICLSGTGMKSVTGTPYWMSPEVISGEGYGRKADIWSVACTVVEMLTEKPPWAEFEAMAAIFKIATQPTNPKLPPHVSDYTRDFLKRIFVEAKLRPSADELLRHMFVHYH

[2] = target: Serine/threonine-protein kinase PLK1 (Homo sapiens) (UniProt P53350); test: Inhibition of PLK1 Lys2 labeling site in human Huh-7 cells at 1 uM by KiNativ Profiling analysis relative to control; format: cell-based
[3] = target: Receptor tyrosine-protein kinase erbB-3 (Homo sapiens) (UniProt P21860); test: Inhibition of HER3/ErbB3 Lys1 labeling site in human A-375 cells at 5 uM by KiNativ Profiling analysis relative to control; format: cell-based
[4] = target: TGF-beta receptor type-2 (Homo sapiens) (UniProt P37173); test: Inhibition of TGFBR2 (unknown origin) at 1 uM by Ambit Kinomescan binding assay relative to control
[5] = target: T2, Serine/threonine-protein kinase D3 (Homo sapiens) (UniProt O94806); test: Inhibition of PKD3 Lys2 labeling site in human A-375 cells at 0.5 uM by KiNativ Profiling analysis relative to control; format: cell-based
T2 sequence (whole entry): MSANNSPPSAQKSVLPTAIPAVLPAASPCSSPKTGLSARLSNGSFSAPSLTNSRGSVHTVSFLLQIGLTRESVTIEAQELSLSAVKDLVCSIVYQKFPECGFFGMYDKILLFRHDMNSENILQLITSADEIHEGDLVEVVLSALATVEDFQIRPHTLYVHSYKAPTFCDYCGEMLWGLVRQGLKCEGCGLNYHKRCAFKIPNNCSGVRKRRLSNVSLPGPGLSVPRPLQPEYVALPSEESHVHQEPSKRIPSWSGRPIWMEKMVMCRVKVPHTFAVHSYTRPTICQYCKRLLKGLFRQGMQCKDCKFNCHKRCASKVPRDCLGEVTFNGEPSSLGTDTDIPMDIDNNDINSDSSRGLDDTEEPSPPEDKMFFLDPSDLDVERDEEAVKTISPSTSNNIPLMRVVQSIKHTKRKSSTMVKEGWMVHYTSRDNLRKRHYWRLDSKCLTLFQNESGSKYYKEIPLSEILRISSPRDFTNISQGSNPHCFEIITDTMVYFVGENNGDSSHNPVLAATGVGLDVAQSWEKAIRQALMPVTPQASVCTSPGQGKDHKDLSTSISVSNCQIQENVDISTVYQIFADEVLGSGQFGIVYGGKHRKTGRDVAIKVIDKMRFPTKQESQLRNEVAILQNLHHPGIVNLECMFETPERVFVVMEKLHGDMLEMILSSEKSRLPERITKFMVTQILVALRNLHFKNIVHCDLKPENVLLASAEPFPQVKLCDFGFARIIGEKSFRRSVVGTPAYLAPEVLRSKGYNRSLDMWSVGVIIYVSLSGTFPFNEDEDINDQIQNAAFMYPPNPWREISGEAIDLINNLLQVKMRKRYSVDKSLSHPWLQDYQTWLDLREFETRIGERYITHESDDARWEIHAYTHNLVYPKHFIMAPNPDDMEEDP

[6] = target: 5'-AMP-activated protein kinase catalytic subunit alpha-1 (Homo sapiens) (UniProt Q13131); test: Inhibition of AMPKa1 Lys2 labeling site in human A-375 cells at 0.05 uM by KiNativ Profiling analysis relative to control; format: cell-based
[7] = target: Microtubule-associated serine/threonine-protein kinase 3 (Homo sapiens) (UniProt O60307); test: Inhibition of MAST3 Lys2 labeling site in human A-375 cells at 5 uM by KiNativ Profiling analysis relative to control; format: cell-based
[8] = target: Tyrosine-protein kinase ABL (Homo sapiens) (UniProt P00519+P42684); test: Inhibition of ABL1/2 K1 labeling site in human Huh-7 cells at 10 uM by KiNativ Profiling analysis relative to control; format: cell-based
[9] = target: Peripheral plasma membrane protein CASK (Homo sapiens) (UniProt O14936); test: Inhibition of CASK K1 labeling site in human Huh-7 cells at 10 uM by KiNativ Profiling analysis relative to control
[10] = target: Tyrosine-protein kinase CSK (Homo sapiens, UniProt P41240); test: Inhibition of CSK ACT labeling site harbouring VSDFGLTKEASSTQDTGKLPVK in human A-375 cells at 0.5 uM by KiNativ Profiling analysis relative to control; format: cell-based
Sequence of Tyrosine-protein kinase CSK (P41240 2-450 limits assumed): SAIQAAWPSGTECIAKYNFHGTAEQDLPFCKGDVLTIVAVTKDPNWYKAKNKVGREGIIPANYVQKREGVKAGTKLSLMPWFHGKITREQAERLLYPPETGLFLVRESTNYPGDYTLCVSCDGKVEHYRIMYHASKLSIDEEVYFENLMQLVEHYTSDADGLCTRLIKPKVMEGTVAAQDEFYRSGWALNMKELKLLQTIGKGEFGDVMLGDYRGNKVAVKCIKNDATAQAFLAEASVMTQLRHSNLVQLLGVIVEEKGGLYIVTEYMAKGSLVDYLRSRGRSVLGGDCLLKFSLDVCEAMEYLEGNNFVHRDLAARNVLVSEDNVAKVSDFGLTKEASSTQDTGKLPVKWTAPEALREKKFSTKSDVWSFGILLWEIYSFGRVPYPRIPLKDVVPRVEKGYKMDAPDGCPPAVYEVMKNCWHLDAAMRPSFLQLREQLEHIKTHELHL

Sequence of Microtubule-associated serine/threonine-protein kinase 3 (Homo sapiens) (O60307 whole entry): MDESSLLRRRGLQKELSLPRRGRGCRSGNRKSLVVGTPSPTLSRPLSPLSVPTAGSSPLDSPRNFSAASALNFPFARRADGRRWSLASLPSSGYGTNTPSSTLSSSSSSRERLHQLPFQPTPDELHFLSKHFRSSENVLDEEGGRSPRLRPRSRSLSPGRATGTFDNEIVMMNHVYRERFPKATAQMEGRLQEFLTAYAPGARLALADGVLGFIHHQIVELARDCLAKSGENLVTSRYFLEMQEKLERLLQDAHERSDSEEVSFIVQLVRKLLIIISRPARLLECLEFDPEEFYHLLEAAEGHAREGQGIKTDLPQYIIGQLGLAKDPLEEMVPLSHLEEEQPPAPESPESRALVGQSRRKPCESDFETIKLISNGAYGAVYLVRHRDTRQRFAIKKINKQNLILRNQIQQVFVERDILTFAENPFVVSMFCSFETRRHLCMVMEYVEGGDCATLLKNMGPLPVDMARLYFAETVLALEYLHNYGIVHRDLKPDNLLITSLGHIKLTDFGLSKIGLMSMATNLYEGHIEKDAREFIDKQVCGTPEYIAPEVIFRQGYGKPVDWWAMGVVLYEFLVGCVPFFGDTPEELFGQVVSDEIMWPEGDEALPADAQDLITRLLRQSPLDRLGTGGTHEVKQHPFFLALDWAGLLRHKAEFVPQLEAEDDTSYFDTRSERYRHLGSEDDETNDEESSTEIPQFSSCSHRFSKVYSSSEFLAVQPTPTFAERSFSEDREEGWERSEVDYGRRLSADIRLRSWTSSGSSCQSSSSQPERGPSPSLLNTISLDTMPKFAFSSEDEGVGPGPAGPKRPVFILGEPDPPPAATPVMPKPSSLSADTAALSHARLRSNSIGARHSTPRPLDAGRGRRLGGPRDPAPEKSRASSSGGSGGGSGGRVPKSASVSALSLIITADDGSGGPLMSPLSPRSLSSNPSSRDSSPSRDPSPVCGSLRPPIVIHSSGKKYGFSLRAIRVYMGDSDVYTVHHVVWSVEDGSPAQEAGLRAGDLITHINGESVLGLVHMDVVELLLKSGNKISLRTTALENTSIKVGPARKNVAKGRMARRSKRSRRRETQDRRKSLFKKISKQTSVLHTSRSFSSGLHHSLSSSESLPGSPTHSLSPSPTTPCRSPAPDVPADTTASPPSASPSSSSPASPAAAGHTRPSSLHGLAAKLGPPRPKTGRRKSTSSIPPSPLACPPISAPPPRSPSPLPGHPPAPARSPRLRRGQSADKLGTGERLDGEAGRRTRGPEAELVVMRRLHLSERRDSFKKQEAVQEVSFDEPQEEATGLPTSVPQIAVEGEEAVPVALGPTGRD
Sequence of TGF-beta receptor type-2 (Homo sapiens) (P37173 whole entry): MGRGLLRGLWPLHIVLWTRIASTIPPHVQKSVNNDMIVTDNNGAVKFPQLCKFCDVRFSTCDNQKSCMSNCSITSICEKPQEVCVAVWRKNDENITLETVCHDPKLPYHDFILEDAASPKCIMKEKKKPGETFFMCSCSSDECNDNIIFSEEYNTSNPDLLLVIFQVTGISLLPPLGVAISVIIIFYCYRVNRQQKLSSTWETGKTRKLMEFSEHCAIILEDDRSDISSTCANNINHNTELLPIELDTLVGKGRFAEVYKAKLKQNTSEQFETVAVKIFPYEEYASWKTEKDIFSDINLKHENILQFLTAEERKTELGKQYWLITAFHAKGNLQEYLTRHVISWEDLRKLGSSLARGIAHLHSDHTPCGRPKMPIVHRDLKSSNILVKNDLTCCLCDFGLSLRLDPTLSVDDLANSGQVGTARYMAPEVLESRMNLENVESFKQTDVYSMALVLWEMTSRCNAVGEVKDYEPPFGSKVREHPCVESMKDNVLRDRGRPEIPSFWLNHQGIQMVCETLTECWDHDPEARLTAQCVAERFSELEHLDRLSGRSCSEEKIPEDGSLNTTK
Sequence of Receptor tyrosine-protein kinase erbB-3 (Homo sapiens) (P21860 whole entry): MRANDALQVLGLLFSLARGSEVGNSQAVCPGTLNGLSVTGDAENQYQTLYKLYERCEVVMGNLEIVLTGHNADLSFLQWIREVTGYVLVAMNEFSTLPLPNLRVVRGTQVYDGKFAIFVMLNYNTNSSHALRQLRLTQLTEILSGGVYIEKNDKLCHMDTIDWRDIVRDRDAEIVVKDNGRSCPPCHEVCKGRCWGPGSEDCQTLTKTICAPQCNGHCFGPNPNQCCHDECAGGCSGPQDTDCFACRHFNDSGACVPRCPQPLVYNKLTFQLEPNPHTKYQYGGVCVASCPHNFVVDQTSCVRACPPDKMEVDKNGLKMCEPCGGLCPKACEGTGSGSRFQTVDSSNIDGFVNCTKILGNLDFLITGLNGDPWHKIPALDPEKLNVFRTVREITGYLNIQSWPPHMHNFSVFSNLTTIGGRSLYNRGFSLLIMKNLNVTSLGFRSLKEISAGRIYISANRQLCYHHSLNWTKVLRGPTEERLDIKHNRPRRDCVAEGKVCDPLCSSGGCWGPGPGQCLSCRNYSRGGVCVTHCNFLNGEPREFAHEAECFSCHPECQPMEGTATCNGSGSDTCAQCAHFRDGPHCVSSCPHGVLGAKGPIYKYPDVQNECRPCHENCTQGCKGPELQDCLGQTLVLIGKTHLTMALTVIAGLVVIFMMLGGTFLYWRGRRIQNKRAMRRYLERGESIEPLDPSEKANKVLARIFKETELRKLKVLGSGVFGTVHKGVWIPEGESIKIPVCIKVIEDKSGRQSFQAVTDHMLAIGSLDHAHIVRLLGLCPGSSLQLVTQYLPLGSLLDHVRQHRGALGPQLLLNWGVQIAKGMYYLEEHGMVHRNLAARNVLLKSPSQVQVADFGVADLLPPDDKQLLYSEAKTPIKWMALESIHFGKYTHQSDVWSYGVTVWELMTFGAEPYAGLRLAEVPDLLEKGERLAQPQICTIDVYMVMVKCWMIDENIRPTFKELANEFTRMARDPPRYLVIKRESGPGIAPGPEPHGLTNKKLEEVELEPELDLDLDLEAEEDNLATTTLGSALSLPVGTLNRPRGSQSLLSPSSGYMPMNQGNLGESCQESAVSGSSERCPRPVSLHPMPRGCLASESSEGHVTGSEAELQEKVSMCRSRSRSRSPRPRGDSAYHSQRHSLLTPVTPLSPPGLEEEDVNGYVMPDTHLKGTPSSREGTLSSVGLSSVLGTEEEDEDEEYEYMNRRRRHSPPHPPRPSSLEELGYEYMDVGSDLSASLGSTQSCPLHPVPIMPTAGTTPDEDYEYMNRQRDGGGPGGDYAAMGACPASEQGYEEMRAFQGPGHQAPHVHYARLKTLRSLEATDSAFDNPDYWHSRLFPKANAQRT
Sequence of 5'-AMP-activated protein kinase catalytic subunit alpha-1 (Homo sapiens) (Q13131 whole entry, looked up): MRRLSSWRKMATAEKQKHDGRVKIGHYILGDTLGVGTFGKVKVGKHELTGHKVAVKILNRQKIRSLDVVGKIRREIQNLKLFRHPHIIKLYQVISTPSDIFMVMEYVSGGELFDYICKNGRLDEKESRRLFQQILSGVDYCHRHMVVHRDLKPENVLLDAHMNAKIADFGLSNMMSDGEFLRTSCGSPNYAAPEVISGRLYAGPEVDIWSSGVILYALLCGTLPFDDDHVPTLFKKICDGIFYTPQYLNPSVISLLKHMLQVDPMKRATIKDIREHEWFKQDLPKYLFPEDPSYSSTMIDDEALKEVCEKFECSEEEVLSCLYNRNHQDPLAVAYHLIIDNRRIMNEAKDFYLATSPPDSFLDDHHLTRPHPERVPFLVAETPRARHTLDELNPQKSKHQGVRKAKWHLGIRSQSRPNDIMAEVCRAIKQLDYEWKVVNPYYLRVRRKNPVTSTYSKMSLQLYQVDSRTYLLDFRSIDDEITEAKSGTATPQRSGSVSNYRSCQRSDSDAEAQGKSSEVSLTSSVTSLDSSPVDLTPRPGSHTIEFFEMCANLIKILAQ
Sequence of Serine/threonine-protein kinase PLK1 (Homo sapiens) (P53350 whole entry): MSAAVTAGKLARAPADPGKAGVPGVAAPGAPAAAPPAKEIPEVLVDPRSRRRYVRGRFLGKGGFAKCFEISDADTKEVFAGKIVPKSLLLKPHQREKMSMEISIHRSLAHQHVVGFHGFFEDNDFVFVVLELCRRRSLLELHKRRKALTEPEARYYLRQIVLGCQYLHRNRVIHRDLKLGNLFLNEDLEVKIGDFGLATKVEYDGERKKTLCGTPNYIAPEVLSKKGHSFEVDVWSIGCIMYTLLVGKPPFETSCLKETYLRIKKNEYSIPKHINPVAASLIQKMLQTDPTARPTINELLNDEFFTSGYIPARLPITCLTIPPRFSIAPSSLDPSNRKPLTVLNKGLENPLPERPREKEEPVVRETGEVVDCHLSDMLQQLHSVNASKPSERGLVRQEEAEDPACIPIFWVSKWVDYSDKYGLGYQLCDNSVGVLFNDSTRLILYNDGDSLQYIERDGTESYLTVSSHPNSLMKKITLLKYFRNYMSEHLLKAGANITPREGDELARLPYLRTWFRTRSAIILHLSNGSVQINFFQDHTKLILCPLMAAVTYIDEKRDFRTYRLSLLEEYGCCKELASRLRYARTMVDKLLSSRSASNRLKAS

For `CNc1cc(Oc2cc(C(=O)Nc3cc(N4CCN(C)CC4)cc(C(F)(F)F)c3)ccc2C)ncn1`, the inhibition [1] was 28.2% and the inhibition [2] was 1.3%.
With `CCN1CCN(Cc2ccc(NC(=O)c3ccc(C)c(/C=C/c4cnc5[nH]ccc5c4OC)c3)cc2C(F)(F)F)CC1` the inhibition [3] was -6.6%, the inhibition [4] was 52% and the inhibition [5] was -8.8%. The inhibition [6] was 7.3%.
`CCN1CCN(Cc2ccc(NC(=O)c3ccc(C)c(Oc4ccnc5[nH]ccc45)c3)cc2C(F)(F)F)CC1` showed an inhibition [7] of 4.8%, an inhibition [8] of 96% and an inhibition [9] of 12%. It also gave an inhibition [10] of 36.5%.
